Series [1] has as its system promastigotes and the amastigotes forms of Leishmania (L.) species. Details: method as in PMID 24433962, doi:10.1016/j.molstruc.2019.03.032, PMID 34311084, PMID 36444862. The settings on record: Figure 2; cited from earlier work.
Series [2] concerns LdTopIB. Details: method as in PMID 24433962, doi:10.1016/j.molstruc.2019.03.032, PMID 34311084, PMID 36444862. The note with it: Figure 2; cited from earlier work.
Series [3] relates to promastigotes of Leishmania donovani (MHOM/IN/1983/AG83). The series is described as follows: In vitro antileishmanial activity, Trypan blue dye exclusion method. It is filed as cell-based. The note with it: Leishmania donovani, 72 h, L. donovani promastigotes, 22 ± 1 °C, 50% growth inhibition, read-out: IC50 Using Trypan Blue Dye Exclusion Method. Here is the method: The compounds (23a–f, 24a–f, and 25a–g) were initially screened for their in vitro antileishmanial activity against promastigotes of Leishmania donovani (MHOM/IN/1983/AG83) utilizing the Trypan blue dye exclusion method and the plasmid relaxation assay using amphotericin B and camphothesin as standard reference drugs, respectively.
The promastigotes were harvested from the culture vials, counted, and 2 × 10^6 cells/well were seeded in a 48-well culture plate. The antileishmanial screening of all the derivatives, 23a–f, 24a–f, and 25a–g, as well as the positive control, was performed at various concentrations (2 μg/mL, 4 μg/mL, 8 μg/mL, and 16 μg/mL) added in triplicate. The plate was incubated at 22 ± 1 °C in the BOD incubator for 72 h. After 72 h, each well was counted for the number of viable parasites using the Trypan blue dye exclusion method, and the percentage growth inhibition was calculated by using the formula: Percentage viability=No. of viable cells in treated well/No. of viable cells in blank well×100 Percentage growth inhibition = 100 − percentage viability […]
The IC50 (inhibitory concentration at which 50% of the parasites were dead) value was obtained by plotting a linear dose–response curve in SPSS software (Version 23). […]
Parasite strain and culture conditions:
The SSG-sensitive Indian strain of Leishmania donovani (MHOM/IN/1983/AG83) obtained from CSIR-IICB, Kolkata, was used for the study. The promastigotes of these strains were maintained in Medium 199+10% FCS (Foetal Calf Serum) by serial sub-culturing at an ambient temperature of 22±1°C every 72 […]
In vitro antileishmanial activity
Trypan blue dye exclusion method
For carrying out the antileishmanial activity in vitro, promastigotes of Leishmania donovani were used.
The promastigotes were harvested from the culture vials, counted, and 2 × 10^6 cells/well were seeded in a 48-well culture plate. Further, compounds at various concentrations (2 μg/mL, 4 μg/mL, 8 μg/mL and 16 μg/mL) were added in triplets. No drug was added to the well serving as a blank, and amphotericin B was added to the well serving as the positive control. The plate was incubated at 22 ± 1°C in the BOD incubator for 72 hours. After 72 hours, each well was counted for the number of viable parasites using the trypan blue dye exclusion method, and the percentage growth inhibition was calculated by using the formula:
Percentage growth inhibition = 100 – percentage viability
IC50 (inhibitory concentration at which 50% of the parasites were dead) was obtained by plotting a linear dose-response curve in SPSS software (Version 23). […]
8.0) after being stained with ethidium bromide (0.5 µg/mL). Plotting the percentage of supercoiled DNA versus drug concentrations allowed researchers to determine the 50% inhibition concentration (IC50) values of LTopIB inhibition as the 50% reduction of supercoiled DNA.
Characterization data of spirooxindole derivatives (23a-f, 24a-f, 25a-g).
(1'S,2'R,3S,7a'S)-1'-(4-chlorophenyl)-2'-(4-fluorobenzoyl)-5-methyl-1',2',5',6',7',7a'-hexahydrospiro [indoline-3,3'-pyrrolizin]-2-one (23a): The product was synthesized utilizing the microwave-irradiated approach, and purified by column chromatography over silica gel using hexane/EtOAc (8:2) as an eluent; Physical Appearance: light yellow solid; Yield: 98%; Rf (EtOAc/hexane: 1:1) = 0.48; m.p. 182-184 °C; […]
(1'S,2'R,3S,7a'S)-5-fluoro-2'-(4-fluorobenzoyl)-1'-(4-methoxyphenyl)-1',2',5',6',7',7a'-hexahydro spiro[indoline-3,3'-pyrrolizin]-2-one (23b): The product was synthesized utilizing the microwave-irradiated approach, and purified by column chromatography over silica gel using hexane/EtOAc (7:3) as an eluent; Physical Appearance: light yellow solid; Yield: 66%; Rf (EtOAc/hexane: 1:1) = 0.45; m.p. 161-

Series [4] addresses Leishmania DNA topoisomerase type IB (purified recombinant LTopIB) (Leishmania donovani, UniProt A0A3Q8IHS4+Q8WQM6). Put plainly: Plasmid relaxation assay (relaxation of supercoiled plasmid DNA). In kind it is biochemical. The settings on record: LTopIB inhibition, 50% reduction of supercoiled DNA; read-out: IC50 Using Plasmid Relaxation Assay. The method, then:
The relaxation of supercoiled plasmid DNA is the method used for the determination of LTopIB activity. Various doses of each compound were treated with one unit of pure LTopIB (the enzyme to relax 0.5 µg of supercoiled DNA for 30 min at 37 °C) for 20 min at 4 °C. The reaction mixture, including 0.5 μg of supercoiled pBluescript SK(−) plasmid, 10 mM Tris-HCl buffer pH 7.5, 5 mM MgCl2, 0.1 mM EDTA, 15 µg/mL of bovine serum albumin, and 150 mM KCl, was then added in a final volume of 20 μL. After 30 min at 37 °C, the reaction mixtures were stopped by adding 4 μL of loading buffer, which included 5% sarkosyl, 0.12% bromophenol blue, and 25% glycerol. By electrophoresis, the topoisomers were separated on 1% agarose gels and electrophoresed at 2 V/cm for 16 h in a 0.1 M Tris-borate-EDTA buffer (pH 8.0) after being stained with ethidium bromide (0.5 µg/mL). Plotting the percentage of supercoiled DNA versus drug concentrations allowed researchers to determine the 50% inhibition concentration (IC50) values of LTopIB inhibition as the 50% reduction of supercoiled DNA [72].
Because of the presence of spirooxindole systems in the structure of these compounds, we aimed to assess their inhibitory potential on purified recombinant LTopIB measuring the relaxation of supercoiled plasmid DNA. In this regard, all spirooxindole derivatives were assessed for LTopIB inhibition through the prevention of DNA relaxation in a circular DNA plasmid. […] After this initial test, potential inhibitor dose/response curves were performed to obtain their IC50 values. […]
The relaxation of supercoiled plasmid DNA is the method used for the determination of LTopIB activity.
Various doses of each compound were treated with one unit of pure LTopIB (the enzyme to relax 0.5 µg of supercoiled DNA for 30 min at 37 °C) for 20 min at 4 °C. The reaction mixture including 0.5 μg of supercoiled pBluescript SK(−) plasmid, 10 mM Tris-HCl buffer pH 7.5, 5 mM MgCl2, 0.1 mM EDTA, 15 µg/mL bovine serum albumin, and 150 mM KCl was then added in a final volume of 20 μL. After 30 minutes at 37 °C, the reaction mixtures were stopped by adding 4 μL of loading buffer, which included 5% sarkosyl, 0.12% bromophenol blue, and 25% glycerol. By electrophoresis, the topoisomers were separated in 1% agarose gels were electrophoresed at 2 V/cm for 16 hours in a 0.1 M Tris-borate-EDTA buffer (pH 8.0) after being stained with ethidium bromide (0.5 µg/mL). Plotting the percentage of supercoiled DNA versus drug concentrations allowed researchers to determine the 50% inhibition concentration (IC50) values of LTopIB inhibition as the 50% reduction of supercoiled DNA. […]

Our source for the melting point, IC50 and EC50 values is PMC10302753, “Natural-Product-Inspired Microwave-Assisted Synthesis of Novel Spirooxindoles as Antileishmanial Agents: Synthesis, Stereochemical Assignment, Bioevaluation, SAR, and Molecular Docking Studies” (Molecules, 2023).

SMILES strings stand for the structures. ≈ marks a conversion by molar mass, not a printed value.

Leishmania DNA topoisomerase type IB (purified recombinant LTopIB), sequence (Q8WQM6 entry or part of it): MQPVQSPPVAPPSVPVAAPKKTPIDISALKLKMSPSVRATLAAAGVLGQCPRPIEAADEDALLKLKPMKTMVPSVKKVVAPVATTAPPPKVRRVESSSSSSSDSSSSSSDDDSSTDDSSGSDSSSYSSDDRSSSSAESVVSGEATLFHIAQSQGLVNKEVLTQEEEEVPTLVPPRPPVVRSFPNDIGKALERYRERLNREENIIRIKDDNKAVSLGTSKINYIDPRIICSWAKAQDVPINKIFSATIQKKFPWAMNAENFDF
Leishmania DNA topoisomerase type IB (purified recombinant LTopIB), sequence (A0A3Q8IHS4 entry or part of it): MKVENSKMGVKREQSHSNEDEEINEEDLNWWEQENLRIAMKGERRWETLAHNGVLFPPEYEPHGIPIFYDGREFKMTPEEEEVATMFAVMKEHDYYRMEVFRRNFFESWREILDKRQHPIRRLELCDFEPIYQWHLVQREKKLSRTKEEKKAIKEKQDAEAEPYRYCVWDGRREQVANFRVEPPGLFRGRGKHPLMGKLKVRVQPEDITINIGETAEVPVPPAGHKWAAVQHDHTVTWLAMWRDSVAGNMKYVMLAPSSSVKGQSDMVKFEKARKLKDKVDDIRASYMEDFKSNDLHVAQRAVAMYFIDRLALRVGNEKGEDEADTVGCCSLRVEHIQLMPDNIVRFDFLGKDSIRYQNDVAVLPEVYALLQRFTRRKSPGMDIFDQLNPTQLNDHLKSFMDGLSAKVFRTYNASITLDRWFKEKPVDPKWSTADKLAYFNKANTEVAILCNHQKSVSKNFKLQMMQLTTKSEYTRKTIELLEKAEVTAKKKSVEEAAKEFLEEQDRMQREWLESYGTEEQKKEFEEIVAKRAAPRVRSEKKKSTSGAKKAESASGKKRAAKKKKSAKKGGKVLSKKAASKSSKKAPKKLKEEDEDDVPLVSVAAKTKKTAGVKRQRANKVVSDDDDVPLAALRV

Compound `O=C1NC(=O)C2(CC(c3ccccc3)N(Cc3ccccc3)C(c3ccccc3)C2)N1c1ccccc1` (centres unmarked) [compound 19] had a melting point of 142 to 144 °C. In addition, the IC50 in series [1] was 0.89 µM.

In turn, `O=C(c1ccc(F)cc1)C1C(c2ccc(Cl)cc2Cl)C2CSCN2C12C(=O)Nc1ccccc12` (centres unmarked) [compound 17] returned a melting point of 103 to 105 °C. Also, in series [1], the IC50 is 39.8 ± 0.43 µM.

Compound `Cc1ccc(C(CC(=O)c2ccccc2)C2C(=O)Nc3ccccc32)cc1` (centres unmarked) [compound 16] returned a melting point of 112 to 114 °C. Also, in series [1], the EC50 is 16.2 µg/mL (≈ 45.6 µM).

`COC(=O)C1CC2CCCN2C12C(=O)N(Cc1ccccc1)c1ccccc12` (centres unmarked) [compound 15] showed a melting point of 138 to 140 °C. Moreover, the IC50 in series [2] is 3.29 µM.

`COc1ccc(C2C3CCCN3C3(C(=O)Nc4ccc([N+](=O)[O-])cc43)C2C(=O)c2ccc(Br)cc2)cc1` (centres unmarked) [23e] gave a melting point of 111 to 113 °C. In series [3], the IC50 is > 20 µM. The half-maximal inhibitory concentration (IC50) in series [4] was > 100 µM.

With `COc1ccc([C@H]2[C@H](Cc3cc4ccccc4[nH]3)N[C@@]3(C(=O)Nc4ccccc43)[C@@H]2C(=O)c2ccc(Br)cc2)cc1` [25b], the melting point is 118 to 120 °C. For the same compound, the IC50 in series [3] was > 10 µM. The IC50 in series [4] worked out at 89.1 µM.

By melting point is commonly meant the temperature, or range, at which the solid turns liquid. As a reminder, the IC50 is the midpoint of a concentration-inhibition curve. What is called EC50 is the concentration giving half of the maximal effect.
